From patent US9796711B2, “Substituted pyrazolo[3,4-b]pyridin-6-carboxylic acids and method of use” (AbbVie S.àr.l., priority 2015, dated 2017)

Biological target: T1, ΔF508-CFTR (Homo sapiens, UniProt P13569, DEL508-508)
T1 construct: host or cells: CFBE41o-, doxycycline-inducible
Assay: CFTR cell surface levels using HRP-tagged ΔF508-CFTR expressing CFBE cells, in the presence of a co-corrector
Type: cell-based
Settings: HRP-tagged ΔF508-CFTR expressing CFBE cells, in the presence of 3 μM co-corrector; for EC50: read-out: EC50
Text: Measuring CFTR Cell Surface Levels Using HRP-Tagged AF508-CFTR Expressing CFBE Cells
The HRP-tagged AF508-CFTR cell assay measures the expression of CFTR-ΔF508 at the plasma membrane. CFTR-ΔF508 has a folding defect leading to absence of protein at the plasma membrane. This assay is used to evaluate the capacity of compounds to increase the expression of CFTR-ΔF508 at the plasma membrane. The CFTR-ΔF508 is tagged with HRP (horse radish peroxidase enzyme) within the ECL4 (Extracellular loop 4) of CFTR (Phuan, P.-W. et al. Synergy-based small-molecule screen using a human lung epithelial cell line yields AF508-CFTR correctors that augment VX-809 maximal efficacy. Mol. Pharmacol. 86, 42-51 (2014)). When HRP-tagged AF508-CFTR is present at the plasma membrane, the HRP enzyme activity can be measured. The amount of CFTR-ΔF508 that can be rescued to the plasma membrane is correlated with the amount of functional enzyme that can be measured.
There are several ways to measure the capacity of compounds to rescue CFTR-ΔF508 to the plasma membrane; either compounds are evaluated on their own and the impact on plasma membrane levels is measured or compounds are evaluated in combination with a co-corrector, i.e. a compound that rescues CFTR-ΔF508 to the plasma membrane but rescue can be enhanced by addition of compounds due to a complementary mode of action.
Activity of Compounds in Combination with Co-Corrector:
For this purpose doxycycline-inducible AF508-CFTR-HRP expressing CFBE4lo-cells (obtained from Gergely Lukacs, McGill University) were maintained in MEM (Minimum Essential Medium, Gibco; 31095) supplemented with 10% fetal bovine serum (Hyclone; SV30160.03) under puromycin (3 μg/mL) and G418 selection (0.2 mg/mL). For compound testing, cells were seeded at 4000 cells/well in white 384-well plates (Greiner; 781080) in 50 μL of medium containing 0.5 μg/mL doxycycline and incubated for 68 hours at 37° C., 5% CO2. On day four, 10 μL of test compounds diluted in PBS (phosphate buffered saline) were added to the plates at a final DMSO concentration of 0.1%. In order to measure compound synergy with a co-corrector, 3 μM co-corrector (3-[(2R,4R)-4-({[1-(2,2-difluoro-1,3-benzodioxol-5-yl)cyclopropyl]carbonyl}amino)-7-methoxy-3,4-dihydro-2H-chromen-2-yl]benzoic acid) was added along with test compounds. All compound plates contained negative controls (DMSO) and positive controls (3 μM co-corrector). Cell plates were incubated at 33° C., 5% CO2 for 20 hours. On day five, the cells were washed five times with phosphate-buffered saline, and HRP activity was assayed by the addition of 50 μL/well of HRP substrate (SuperSignal™ West Pico Chemiluminescent Substrate, Thermo Scientific; 34080). After incubation for 15 minutes in the dark, the chemiluminescence was measured using a plate reader (EnVision®, Perkin Elmer). Raw data were normalized to percentage activity values using the equation: 100×(Sample−Negative control)/(Positive control−Negative Control).

T1 sequence (P13569 with tags, fused parts or gaps DEL508-508): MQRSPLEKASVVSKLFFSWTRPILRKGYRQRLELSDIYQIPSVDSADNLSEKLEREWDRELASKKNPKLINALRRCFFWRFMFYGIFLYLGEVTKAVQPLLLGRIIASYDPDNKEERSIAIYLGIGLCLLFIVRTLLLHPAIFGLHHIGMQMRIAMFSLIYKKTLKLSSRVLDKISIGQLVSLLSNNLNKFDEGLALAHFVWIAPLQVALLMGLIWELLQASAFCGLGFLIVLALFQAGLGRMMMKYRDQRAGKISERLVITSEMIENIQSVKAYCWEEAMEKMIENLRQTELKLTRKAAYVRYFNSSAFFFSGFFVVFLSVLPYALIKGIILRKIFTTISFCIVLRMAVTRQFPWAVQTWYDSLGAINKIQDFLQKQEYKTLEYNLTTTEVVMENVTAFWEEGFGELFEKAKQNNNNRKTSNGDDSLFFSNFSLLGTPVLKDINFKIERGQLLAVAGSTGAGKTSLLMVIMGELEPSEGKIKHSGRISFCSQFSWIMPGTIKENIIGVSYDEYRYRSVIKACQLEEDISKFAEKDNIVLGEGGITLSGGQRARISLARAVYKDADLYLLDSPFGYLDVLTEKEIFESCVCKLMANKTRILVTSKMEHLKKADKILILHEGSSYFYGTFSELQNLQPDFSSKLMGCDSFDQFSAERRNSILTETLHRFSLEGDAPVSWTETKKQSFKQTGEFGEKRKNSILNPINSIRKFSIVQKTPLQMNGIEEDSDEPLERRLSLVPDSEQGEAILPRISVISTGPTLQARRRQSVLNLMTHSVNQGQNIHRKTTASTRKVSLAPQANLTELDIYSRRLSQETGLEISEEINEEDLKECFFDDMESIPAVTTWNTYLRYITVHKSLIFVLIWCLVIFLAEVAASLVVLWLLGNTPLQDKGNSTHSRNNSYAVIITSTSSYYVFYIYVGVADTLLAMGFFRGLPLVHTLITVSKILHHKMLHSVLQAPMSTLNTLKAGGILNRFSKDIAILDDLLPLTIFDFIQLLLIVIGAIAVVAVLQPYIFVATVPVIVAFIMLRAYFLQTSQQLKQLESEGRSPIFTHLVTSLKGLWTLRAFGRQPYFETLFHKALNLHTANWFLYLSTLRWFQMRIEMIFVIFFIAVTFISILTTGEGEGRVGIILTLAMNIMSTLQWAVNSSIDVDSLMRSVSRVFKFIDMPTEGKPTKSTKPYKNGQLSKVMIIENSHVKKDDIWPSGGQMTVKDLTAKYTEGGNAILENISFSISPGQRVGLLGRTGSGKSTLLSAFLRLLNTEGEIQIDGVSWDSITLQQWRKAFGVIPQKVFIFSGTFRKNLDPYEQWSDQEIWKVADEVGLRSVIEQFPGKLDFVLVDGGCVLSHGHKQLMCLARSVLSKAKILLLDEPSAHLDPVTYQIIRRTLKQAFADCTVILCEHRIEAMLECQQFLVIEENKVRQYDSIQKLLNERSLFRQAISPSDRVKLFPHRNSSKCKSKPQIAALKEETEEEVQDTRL

Structure (SMILES) | % Activation | EC50
CN1CCCC(CN(C)c2cc(C(=O)O)nc3c2c(C2CCC2)nn3-c2ccccc2)C1 (stereo not drawn) [compound 593, 3-cyclobutyl-4-{methyl [(1-methylpiperidin-3-yl)methyl]amino}-1-phenyl-1H-pyrazolo[3,4-b]pyridine-6-carboxylic acid] | 313.3% | 1170 nM
O=C(O)c1cc(OC2CCCC2)c2c(C3CCC3)nn(-c3ccccc3)c2n1 [compound 597, 3-cyclobutyl-4-(cyclopentyloxy)-1-phenyl-1H-pyrazolo[3,4-b]pyridine-6-carboxylic acid] | 342.5% | 230 nM
O=C(O)c1cc(O[C@H]2C[C@@H](N3CCC3)C2)c2c(C3CCC3)nn(-c3ccccc3)c2n1 [compound 598, 4-{[cis-3-(azetidin-1-yl)cyclobutyl]oxy}-3-cyclobutyl-1-phenyl-1H-pyrazolo[3,4-b]pyridine-6-carboxylic acid] | 274.4% | 3330 nM
O=C(O)c1cc(OCC2CC(F)(F)C2)c2c(C3CCC3)nn(-c3ccccc3)c2n1 [compound 600, 3-cyclobutyl-4-[(3,3-difluorocyclobutyl)methoxy]-1-phenyl-1H-pyrazolo[3,4-b]pyridine-6-carboxylic acid] | 334.3% | 383 nM
CN1CC(Oc2cc(C(=O)O)nc3c2c(C2CCC2)nn3-c2ccccc2)C1 [compound 601, 3-cyclobutyl-4-[(1-methylazetidin-3-yl)oxy]-1-phenyl-1H-pyrazolo[3,4-b]pyridine-6-carboxylic acid] | 173.6% | 2480 nM
CC(C)c1nn(-c2ccc(F)cc2)c2nc(C(=O)O)cc(OCCCN(C)C)c12 [compound 606, 4-[3-(dimethylamino)propoxy]-1-(4-fluorophenyl)-3-(propan-2-yl)-1H-pyrazolo[3,4-b]pyridine-6-carboxylic acid] | 199.7% | 1770 nM
CC(C)c1nn(-c2ccc(F)cc2)c2nc(C(=O)O)cc(OCCCN3CCOCC3)c12 [compound 607, 1-(4-fluorophenyl)-4-[3-(morpholin-4-yl)propoxy]-3-(propan-2-yl)-1H-pyrazolo[3,4-b]pyridine-6-carboxylic acid] | 305.5% | 1980 nM
CC(C)c1nn(-c2ccc(F)cc2)c2nc(C(=O)O)cc(OCC3(C)COC3)c12 [compound 608, 1-(4-fluorophenyl)-4-[(3-methyloxetan-3-yl)methoxy]-3-(propan-2-yl)-1H-pyrazolo[3,4-b]pyridine-6-carboxylic acid] | 338.1% | 683 nM
CC(C)c1nn(-c2ccc(F)cc2)c2nc(C(=O)O)cc(OCC3CCCO3)c12 (stereo not drawn) [compound 609, 1-(4-fluorophenyl)-4-[(oxolan-2-yl)methoxy]-3-(propan-2-yl)-1H-pyrazolo[3,4-b]pyridine-6-carboxylic acid] | 336.4% | 1040 nM
CC(C)c1nn(-c2ccc(F)cc2)c2nc(C(=O)O)cc(OCCCN3CCCCC3)c12 [compound 653, 1-(4-fluorophenyl)-4-[3-(piperidin-1-yl)propoxy]-3-(propan-2-yl)-1H-pyrazolo[3,4-b]pyridine-6-carboxylic acid] | 260.3% | 3330 nM
O=C(O)c1cc(OCC2CCOCC2)c2c(C3CCC3)nn(-c3ccc(F)cc3)c2n1 [compound 658, 3-cyclobutyl-1-(4-fluorophenyl)-4-[(oxan-4-yl)methoxy]-1H-pyrazolo[3,4-b]pyridine-6-carboxylic acid] | 345.9% | 455 nM
CC(C)(O)C1CCN(c2cc(C(=O)O)nc3c2c(C2CCC2)nn3-c2ccccc2)CC1 [compound 659, 3-cyclobutyl-4-[4-(2-hydroxypropan-2-yl)piperidin-1-yl]-1-phenyl-1H-pyrazolo[3,4-b]pyridine-6-carboxylic acid] | 424.5% | 69.5 nM
CC(C)c1nn(-c2ccc(F)cc2)c2nc(C(=O)O)cc(N3CCC(N(C)C)CC3)c12 [compound 660, 4-[4-(dimethylamino)piperidin-1-yl]-1-(4-fluorophenyl)-3-(propan-2-yl)-1H-pyrazolo[3,4-b]pyridine-6-carboxylic acid] | 284.47% | 3330 nM
CC(=O)N1CCC(COc2cc(C(=O)O)nc3c2c(C(C)C)nn3-c2ccc(F)cc2)CC1 [compound 662, 4-[(1-acetylpiperidin-4-yl)methoxy]-1-(4-fluorophenyl)-3-(propan-2-yl)-1H-pyrazolo[3,4-b]pyridine-6-carboxylic acid] | 310.6% | 2300 nM
COC(=O)N1CCC(COc2cc(C(=O)O)nc3c2c(C(C)C)nn3-c2ccc(F)cc2)CC1 [compound 663, 1-(4-fluorophenyl)-4-{[1-(methoxycarbonyl)piperidin-4-yl]methoxy}-3-(propan-2-yl)-1H-pyrazolo[3,4-b]pyridine-6-carboxylic acid] | 315.5% | 90.9 nM
CC(C)c1nn(-c2ccc(F)cc2)c2nc(C(=O)O)cc(NC(=O)C3CCOCC3)c12 [compound 664, 1-(4-fluorophenyl)-4-[(oxane-4-carbonyl)amino]-3-(propan-2-yl)-1H-pyrazolo[3,4-b]pyridine-6-carboxylic acid] | 120.6% | > 10000 nM
N#CCC1(O)CCN(c2cc(C(=O)O)nc3c2c(C2CCC2)nn3-c2ccccc2)CC1 [compound 665, 4-[4-(cyanomethyl)-4-hydroxypiperidin-1-yl]-3-cyclobutyl-1-phenyl-1H-pyrazolo[3,4-b]pyridine-6-carboxylic acid] | 330.43% | 1860 nM
CCOCC1(F)CCN(c2cc(C(=O)O)nc3c2c(C(C)C)nn3-c2ccc(F)cc2)CC1 [compound 666, 4-[4-(ethoxymethyl)-4-fluoropiperidin-1-yl]-1-(4-fluorophenyl)-3-(propan-2-yl)-1H-pyrazolo[3,4-b]pyridine-6-carboxylic acid] | 338.35% | 253 nM
COCCOCC1(F)CCN(c2cc(C(=O)O)nc3c2c(C(C)C)nn3-c2ccc(F)cc2)CC1 [compound 667, 4-{4-fluoro-4-[(2-methoxyethoxy)methyl]piperidin-1-yl}-1-(4-fluorophenyl)-3-(propan-2-yl)-1H-pyrazolo[3,4-b]pyridine-6-carboxylic acid] | 339.85% | 462 nM
CC(C)c1nn(-c2ccc(F)cc2)c2nc(C(=O)O)cc(N3CC[C@@H](O)[C@H](F)C3)c12 [compound 668, 4-[(3R,4R)-3-fluoro-4-hydroxypiperidin-1-yl]-1-(4-fluorophenyl)-3-(propan-2-yl)-1H-pyrazolo[3,4-b]pyridine-6-carboxylic acid] | 341.65% | 2360 nM
COCC1(F)CCN(c2cc(C(=O)O)nc3c2c(C(C)C)nn3-c2ccc(F)cc2)CC1 [compound 669, 4-[4-fluoro-4-(methoxymethyl)piperidin-1-yl]-1-(4-fluorophenyl)-3-(propan-2-yl)-1H-pyrazolo[3,4-b]pyridine-6-carboxylic acid] | 315.5% | 795 nM
COCCOCC1(F)CCCN(c2cc(C(=O)O)nc3c2c(C(C)C)nn3-c2ccc(F)cc2)C1 (stereo not drawn) [compound 670, 4-{3-fluoro-3-[(2-methoxyethoxy)methyl]piperidin-1-yl}-1-(4-fluorophenyl)-3-(propan-2-yl)-1H-pyrazolo[3,4-b]pyridine-6-carboxylic acid] | 397.3% | 218 nM
O=C(O)c1cc(N2CCS(=O)(=O)CC2)c2c(C3CCC3)nn(-c3ccccc3)c2n1 [compound 673, 3-cyclobutyl-4-(1,1-dioxo-1λ^6,4-thiazinan-4-yl)-1-phenyl-1H-pyrazolo[3,4-b]pyridine-6-carboxylic acid] | 163.25% | 3330 nM
O=C(O)c1cc(N2CC(N3CCCC3)C2)c2c(C3CCC3)nn(-c3ccccc3)c2n1 [compound 680, 3-cyclobutyl-1-phenyl-4-[3-(pyrrolidin-1-yl)azetidin-1-yl]-1H-pyrazolo[3,4-b]pyridine-6-carboxylic acid] | 236.7% | 1360 nM
